The record followed here is patent publication US6613961B1, “Plants capable of metabolizing drugs and use thereof” (priority 1998, dated 2003).

Series [1] has as its system seeds of Nipponbare into which the gene was not introduced. The series can be described thus: Germination assay for herbicide resistance, non-introduced rice seeds. The format is in vivo, rice (Nipponbare). The following applies: after about 4 to 7 days.
A further series concerns non-transformed MayQueen. In words: Assay for herbicide resistance, non-transformed potato. Conditions: 14 days after dispersal. It is filed as in vivo. An excerpt: 4, the same growth as that when herbicide was not dispersed.
Series [2] has as its system human P4502C18 gene-introduced rice. The series can be described thus: Germination assay for herbicide resistance of human P4502C18 gene-introduced rice R1 seeds. The format is in vivo.
Series [3] relates to human P4502C19 gene-introduced rice. The series can be described thus: Germination assay for herbicide resistance of human P4502C19 gene-introduced rice R1 seeds. It is filed as in vivo.
A further series addresses T1, Human CYP2B6 (Homo sapiens, UniProt P20813).
T1 sequence (P20813 1-491): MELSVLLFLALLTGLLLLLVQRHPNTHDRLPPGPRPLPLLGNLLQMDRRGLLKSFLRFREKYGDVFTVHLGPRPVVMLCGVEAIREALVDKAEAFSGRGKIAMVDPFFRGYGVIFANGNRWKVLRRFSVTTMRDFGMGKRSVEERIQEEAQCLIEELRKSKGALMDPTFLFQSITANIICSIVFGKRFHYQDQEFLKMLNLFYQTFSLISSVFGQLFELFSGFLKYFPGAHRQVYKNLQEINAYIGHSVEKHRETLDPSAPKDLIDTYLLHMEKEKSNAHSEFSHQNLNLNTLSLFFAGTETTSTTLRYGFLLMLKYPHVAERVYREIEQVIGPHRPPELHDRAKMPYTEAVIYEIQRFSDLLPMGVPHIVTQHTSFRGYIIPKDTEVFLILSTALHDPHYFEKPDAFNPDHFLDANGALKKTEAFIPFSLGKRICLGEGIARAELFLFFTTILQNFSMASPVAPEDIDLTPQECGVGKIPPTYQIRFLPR
The series can be described thus: Metabolism of herbicides in microsomes of recombinant yeast expressing human P450. Here is the method: The reaction was carried out in a range of temperature suitable for an organism from which a p450 molecular species is derived (for example, 37° C. for human P450), by mixing with air while vigorously shaking, within a period during which an enzyme is not inactivated (for example, for 10 to 60 min).
From the height of the peak, a metabolized amount can be obtained.
To 0.1 M potassium phosphate buffer (pH 7.4), the microsomal fraction prepared from each of yeast strains respectively expressing one of 11 human P450 molecular species (obtained from Sumitomo Chemical) was added so that the amount of the p450 would be 25 pmol. Furthermore, 0.5 mM NADPH, 5 mM glucose 6 phosphate, 1 U/ml glucose 6 phosphate dehydrogenase, and 0.1 mM each of the following herbicides (those available in the market were used) were added at the final concentrations thereto to make the total volume of 100 μl. The reaction mixture was shaken at 37° C. for 60 min, and an organic solvent was added thereto for the extraction. The extract was applied to the high performance liquid chromatography, and the metabolite was measured.

The subject of another series is S1974 (human CYP2C19). The series can be described thus: Herbicide tolerance assay for transformants. Conditions: acetochlor 20 μmol, atrazine 1.2 μmol, metolachlor 30 μmol dispersed. The format is in vivo, Solanum tuberosum cv. MayQueen. An excerpt: Then, herbicides were dispersed.
The subject of another series is S1972 (human CYP2B6). The following applies: acetochlor 20 μmol, metolachlor 30 μmol dispersed.
Series [4] has as its system potato transformants. In words: Assay for herbicide resistance of potato transformants (human CYP2C19). The following applies: for Resistance to herbicide: Transformant, 14 days after dispersal.
The subject of series [5] is potato transformants. The series can be described thus: Herbicide metabolism in the potato transformants. It is filed as in vivo, potato (MayQueen). Conditions: 14C-labeled pyributicarb 10 μM in the medium; cultured for 8 days; thin layer chromatography. Here is the method: The potato transformants proliferated from axillary buds, elongated to about 10 cm, were cultured in the medium added with the ^14C-labeled pyributicarb at the concentration of 10 μM. The plants were cultured for 8 days, and metabolites were extracted from the plants (Murakami, M. et al., J. Pesticide. Sci., 1997, 22, 222-225). The metabolites and the culture solution were analyzed by thin layer chromatography (Shiota, N. et al., Pestic. Biochem. Physiol., 1996, 54, 190-198).

A further series addresses T2, Human CYP2C19 (Homo sapiens, UniProt P33261).
T2 construct: purchased Sumitomo Chemical; host or cells: recombinant yeast, microsomal fraction
The series can be described thus: Metabolism of herbicides in microsomes of recombinant yeast expressing human P450. The format is in vitro ADME.

For another series, the system named is tobacco transformants. The series can be described thus: Assay for herbicide resistance in the tobacco R0 plants (human CYP2C9). Also noted: Tolerance to chlorosulfuron: key: 1: almost dead; 2: severely inhibited growth; 3: slightly inferior growth; 4: the same growth as that when the herbicide was not dispersed. Conditions: for Tolerance to chlorosulfuron: cultured for 40 days. The format is in vivo. How it is done:
(§1) Transformed and non-transformed tobacco plants proliferated from axillary buds were transferred onto hormone-free Murashige & Skoog (MS) medium containing 0, 20, 50, 100, or 200 nM chlorosulfuron for assaying tolerance at growth.
(§2) 4, the same growth as that when the herbicide was not dispersed.

In series [6] the test system is non-transformed tobacco plants; only vector introduced. In words: Assay for herbicide resistance in tobacco, control plants. It is filed as in vivo. The following applies: for Tolerance to chlorosulfuron: cultured for 40 days. How it is done: as §1, §2
A further series has as its system tobacco R0 plants. The series can be described thus: Herbicide metabolism in the tobacco R0 plants. The format is in vivo. Conditions: 14C-labeled 0.5 mM chlorosulfuron (20 μl) on the leaf surface; 50 hours; thin layer chromatography. How it is done:
Using the tobacco R0 plants 3 weeks after transplantation, metabolism of chlorosulfuron was measured by the method of Sweetser et al. (Sweetser, P. B. et al., Pestic. Biochem. Physiol., 1982, 17, 18-23). ^14C-labeled 0.5 mM chlorosulfuron (20 μl) was spread on the leaf surface. The leaf surface was washed with acetone 50 hours after the treatment, and a metabolite was extracted by acetone extraction. The extract was concentrated and dried by a rotary evaporator, dissolved in methanol, and analyzed by thin layer chromatography using benzene:acetone:formic acid (30:10:1) as an solvent.

Series [7] deals with human P4502C9 gene-introduced rice. In words: Germination assay for herbicide resistance of human P4502C9 gene-introduced rice R1 seeds. The format is in vivo.
In a further series the target is Human CYP2C9 (Homo sapiens, UniProt P11712). The series can be described thus: Herbicide metabolism by human P450 molecular species (microsomal fraction). It is filed as in vitro ADME.
Sequence of Human CYP2C9 (P11712 whole entry): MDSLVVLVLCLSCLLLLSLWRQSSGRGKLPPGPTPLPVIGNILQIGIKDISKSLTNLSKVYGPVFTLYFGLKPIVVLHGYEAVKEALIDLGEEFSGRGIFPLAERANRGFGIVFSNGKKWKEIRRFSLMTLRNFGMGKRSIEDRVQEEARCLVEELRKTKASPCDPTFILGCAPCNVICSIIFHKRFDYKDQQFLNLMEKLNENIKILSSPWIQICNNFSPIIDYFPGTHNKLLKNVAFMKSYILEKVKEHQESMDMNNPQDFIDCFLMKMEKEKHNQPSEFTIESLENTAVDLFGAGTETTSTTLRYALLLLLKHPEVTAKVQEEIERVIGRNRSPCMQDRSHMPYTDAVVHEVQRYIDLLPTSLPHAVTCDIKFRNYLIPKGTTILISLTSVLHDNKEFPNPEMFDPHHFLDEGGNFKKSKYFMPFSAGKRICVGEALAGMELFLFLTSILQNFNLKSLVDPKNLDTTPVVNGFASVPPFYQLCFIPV

T2 sequence (P33261 whole entry): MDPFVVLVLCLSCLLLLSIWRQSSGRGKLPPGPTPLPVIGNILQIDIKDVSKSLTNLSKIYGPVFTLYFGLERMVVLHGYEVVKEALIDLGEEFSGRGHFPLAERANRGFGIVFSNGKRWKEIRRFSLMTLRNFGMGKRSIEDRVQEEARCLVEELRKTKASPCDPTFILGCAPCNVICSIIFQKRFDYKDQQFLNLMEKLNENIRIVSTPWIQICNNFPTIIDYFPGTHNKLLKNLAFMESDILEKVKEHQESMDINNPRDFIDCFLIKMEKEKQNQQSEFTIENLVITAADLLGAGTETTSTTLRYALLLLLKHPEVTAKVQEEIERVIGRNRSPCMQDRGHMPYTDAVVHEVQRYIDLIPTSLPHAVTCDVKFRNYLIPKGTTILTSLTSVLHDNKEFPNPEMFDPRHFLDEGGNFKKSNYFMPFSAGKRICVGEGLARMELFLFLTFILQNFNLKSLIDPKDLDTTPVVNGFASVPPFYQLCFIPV

Turning to `CCc1cccc(C)c1N(C(=O)CCl)C(C)COC` (stereo not shown) [metolachlor], the Germination of seeds result in series [1] ([…] metolachlor, […] alachlor, 15 μM triflurarin) is listed as “inhibited”; in [1] (metolachlor 4 μM) it was “inhibited”. Further, the Resistance to herbicide in the series with non-transformed MayQueen (Metolachlor 10 μmol/pot) was found to be 2; in the series on non-transformed MayQueen (Metolachlor 15 μmol/pot), 2; in the series with non-transformed MayQueen (Metolachlor 20 μmol/pot), 1.5; in the series on potato transformants [4] (Metolachlor 10 μmol/pot), 2.5; in the series on potato transformants [4] (Metolachlor 15 μmol/pot), 3.5; in the series on potato transformants [4] (Metolachlor 20 μmol/pot), 2.5. In addition, the “The number of tolerant lines” value in series [2] (2C18, 4 μM · 2 ml, 72 sample lines) is 3; in series [3] (2C19, 4 μM · 2 ml, 68 sample lines), 13. In addition, the “elongation of shoots and roots of segregated individuals” value in series [2] (metolachlor 4 μM) and in series [3] (metolachlor 4 μM) was “normally elongated” each time. Moreover, the metabolic reaction confirmed result at Human CYP2B6 is on record as “O-deethylation, O-demethylation”. In addition, the “resistance of the transformant to the herbicide” value in the series with S1974 (human CYP2C19) and in the series on S1972 (human CYP2B6) was “strong resistance” in each case. Also, the “resistance of the transformant compared with the non-transformed MayQueen” value in the series on potato transformants [4] (herbicide dispersed 1 week after transfer to pots) was “higher resistance”.

On to `COc1cccc(N(C)C(=S)Oc2cccc(C(C)(C)C)c2)n1` [pyributicarb], for which the “amounts of pyributicarb in transgenic plant and in the medium compared with non-transformed MayQueen” value in the series on potato transformants [5] is “obviously reduced”. At Human CYP2C19, the metabolic reaction confirmed entry was “thioester cleavage”.

Regarding `COc1nc(C)nc(NC(=O)NS(=O)(=O)c2ccccc2Cl)n1` [chlorosulfuron], in series [1] (chlorosulfuron 250 nM), the Germination of seeds entry is “inhibited”. The “growth of the transformants” value in the series with tobacco transformants (200 nM chlorosulfuron) is recorded as “grew”. Moreover, the Tolerance to chlorosulfuron with tobacco transformants (transformant N8, 20 nM) is 4; in the series with tobacco transformants (transformant N8, 50 nM), 4; in the series on tobacco transformants (transformant N8, 100 nM), 2.5; in the series on tobacco transformants (transformant N8, 200 nM), 2; in the series with tobacco transformants (transformant N60, 20 nM), 4; in the series with tobacco transformants (transformant N60, 50 nM), 4. For the same compound, the Tolerance to chlorosulfuron in the series with tobacco transformants (transformant N60, 100 nM) is 3; with tobacco transformants (transformant N60, 200 nM), 3; in the series on tobacco transformants (transformant N61, 20 nM), 4; in the series on tobacco transformants (transformant N61, 50 nM), 4; in the series with tobacco transformants (transformant N61, 100 nM), 2; with tobacco transformants (transformant N61, 200 nM), 2. In addition, the Tolerance to chlorosulfuron with tobacco transformants (transformant N69, 20 nM) amounted to 4; with tobacco transformants (transformant N69, 50 nM), 4; in the series with tobacco transformants (transformant N69, 100 nM), 2; in the series on tobacco transformants (transformant N69, 200 nM), 2; in [6] (Non-transformed, 20 nM), 2; in series [6] (Non-transformed, 50 nM) it was 1.5. Also, the Tolerance to chlorosulfuron in [6] (Non-transformed, 100 nM) stood at 1; in series [6] (Non-transformed, 200 nM), 0.5; in series [6] (Only vector introduced, 20 nM) it was 2; in [6] (Only vector introduced, 50 nM) it was 1.5; in [6] (Only vector introduced, 100 nM) it was 1; in series [6] (Only vector introduced, 200 nM), 0.5. Also, the “growth of the non-transformed plants” value in [6] (50 nM chlorosulfuron) is “completely inhibited”. The “water-soluble substances which remained at the starting point of the development, in the transformants” value with tobacco R0 plants was “increased”. For the same compound, in [7] (2C9, 250 nM · 2 ml, 44 sample lines), the “The number of tolerant lines” value was found to be 15. Further, the “elongation of shoots and roots of segregated individuals” value in [7] (chlorosulfuron 250 nM) is “normally elongated”. Further, the metabolic reaction confirmed entry at Human CYP2C9 is listed as “ring hydroxylation”.
